From patent publication US5882851A, “Cytochrome P-450 monooxygenases” (Novartis Finance Corporation, priority 1993, dated 1999)

Key:
[1] = molecular target: T1, P-450TYR expressed in E. coli (Sorghum bicolor, UniProt Q43135); assay: Substrate binding spectra of P-450TYR expressed in E. coli
T1 construct: in which the 35 N-terminal amino acids are replaced by the nine N-terminal amino acids from bovine 17α hydroxylase; nine N-terminal amino acids from bovine 17alpha-hydroxylase (replace the 35 N-terminal residues) (N); made in house; host or cells: E. coli JM109, vector pSP19g10L
T1 sequence (Q43135 other isoform, or with tags, fused parts or gaps): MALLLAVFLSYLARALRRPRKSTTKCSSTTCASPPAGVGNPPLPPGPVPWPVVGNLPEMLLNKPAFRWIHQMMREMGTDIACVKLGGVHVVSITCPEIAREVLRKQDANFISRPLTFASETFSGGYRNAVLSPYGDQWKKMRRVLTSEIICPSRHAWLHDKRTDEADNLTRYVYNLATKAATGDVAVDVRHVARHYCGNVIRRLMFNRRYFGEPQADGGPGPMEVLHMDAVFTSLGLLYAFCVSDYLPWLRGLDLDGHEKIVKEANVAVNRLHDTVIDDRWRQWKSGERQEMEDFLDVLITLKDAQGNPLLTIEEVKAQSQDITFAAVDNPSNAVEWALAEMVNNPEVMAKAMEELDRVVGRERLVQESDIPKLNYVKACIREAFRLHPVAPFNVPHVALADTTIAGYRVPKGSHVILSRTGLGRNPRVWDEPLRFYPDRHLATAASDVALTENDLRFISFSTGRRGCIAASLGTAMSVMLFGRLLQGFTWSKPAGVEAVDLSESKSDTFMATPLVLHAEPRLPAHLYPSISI
Excerpt: Cytochrome P-450TYR in the oxidized state has a strong absorption peak at 420 nm, representing the low spin state of the iron of the heme group. The binding of a ligand to the heme group shifts the absorption maximum by changing the spin state of the iron. Binding of tyrosine at the catalytic site of cytochrome P-450TYR induces a change of the spin state of the oxidized iron from low to high spin, and thereby changes the absorption maximum from 420 nm to 390 nm producing a type I spectrum (Jefcoate, Methods in Enzymology 52:258-279, 1978). The following experimental procedure is used to obtain the substrate binding spectrum: two identical cuvettes containing a buffered solution of the isolated cytochrome P-450 are prepared. The substrate of the enzyme is added to the sample cuvette whereas the same volume of buffer is added to the other cuvette. The difference spectrum is then recorded in an SLM-Aminco DW2c spectrophotometer. The absorption difference, A390-420, is proportional to the concentration of cytochrome P-450TYR with a bound substrate at its active site. If a saturating concentration of substrate is added to the sample cuvette, the absorption difference is proportional to the concentration of the substrate specific cytochrome P-450 in the cuvettes. The saturating concentration of the substrate is determined by titrating the cytochrome P-450 sample with increasing amounts of substrate and monitoring A390-420.
A modified cytocrome P-450TYR, in which the 35 N-terminal amino acids are replaced by the nine N-terminal amino acids from bovine 17α hydroxylase is introduced into the expression vector pSP19g10L which can be obtained from Dr. Henry Barnes (La Jolla, Calif.). This plasmid contains the lac Z promoter fused with the known short leader sequence (g10L) of gene 10 from bacteriophage T7 (Olin et al, 1988). A construct containing the N-terminal amino acids from bovine 17α hydroxylase and a truncated form of the P-450TYR gene is designed using PCR mutagenesis: Oligonucleotide TYROL 1d (5'-CGGGATCCATATGGCTCTGTTATTAGCAGTTTTTCTGTCGTACCTGGCCCG-3'; SEQ ID NO 23) containing a 5' mutant cDNA sequence as well as a BamHI and NdeI restriction site is used together with oligonucleotide TYROL 3 comprising the sequence surrounding the unique BamHI restriction site downstream of the ATG start codon of the cDNA coding for P-450TYR to amplify a modified N-terminal sequence of P-450TYR. The amplification product is cut with NdeI and BamHI restriction enzymes. To introduce a HindIII site immediately downstream of the stop codon of the P-450TYR gene, oligonucleotides TYROL 2 and TYROL 4 are used in a polymerase chain reaction to obtain a C-terminal fragment of the P-450TYR gene comprising a HindIII restriction site immediately downstream of the stop codon. The amplification product is cut with PstI and HindIII restriction enzymes. The complete expression plasmid is constructed by simultaneous ligation of the N-terminal NdeI/BamHI fragment, the BamHI/PstI fragment of the P-450TYR gene and the C-terminal PstI/HindIII fragment into NdeI/HindIII cleaved pSP19g10L vector DNA. The expression vector obtained is transformed into E. coli strain JM109. Transformed E. coli produce 300 nmol to 500 nmol cytochrome P-450TYR per liter cell culture upon growth at 28° C. in the presence of 1 mM isopropyl-β-D-thiogalactopyranoside and at 125 rpm. Expression levels as high as 900 nmol per liter, equivalent to 55 mg P-450TYR per liter, have been obtained. […]

[2] = molecular target: T2, E. coli-expressed cytochrome P-450TYR (Sorghum bicolor, UniProt Q43135); assay: Reconstitution with E. coli-expressed cytochrome P-450TYR and sorghum NADPH cytochrome P450 reductase; assay type: biochemical; conditions: phenylalanine as substrate
T2 construct: in which the 35 N-terminal amino acids are replaced by the nine N-terminal amino acids from bovine 17α hydroxylase; nine N-terminal amino acids from bovine 17alpha-hydroxylase (replace the 35 N-terminal residues) (N); made in house; host or cells: E. coli JM109, vector pSP19g10L
Experimental: (§1) 10 μl of the lipid suspension is mixed in a glass vial with 50 μl of the cytochrome P-450TYR (0-1.5 pmol) solution. […] The reaction mixture is subsequently incubated for 1 hour at 30° C. At the end of the incubation period the reaction is stopped by transferring the glass vials onto ice. Radioactively labelled intermediates formed are extracted into 50 μl ehtyl acetate, applied to a silica coated TLC plate and developed using an ethyl acetate/toluene (1:5 v/v) mixture as mobile phase. The resultant product, p-hydroxyphenylacetaldehyde oxime is visualized by autoradiography of the TLC plate. Alternatively, the intermediates are analyzed by reverse-phase HPLC coupled to a Berthold radioactiviy monitor. […] Control samples may be made by omitting either cytochrome P-450 oxidoreductase or NADPH.
(§2) Reconstitution experiments with E. cole-expressed cytochrome P-450TYR and sorghum NADPH cytochorme P450 reductase in dilaurylpohsphatidylcholine micelles is performed as described in section 5.3. above.
T2 sequence (Q43135 other isoform, or with tags, fused parts or gaps): as the sequence (Q43135 other isoform, or with tags, fused parts or gaps) above

[3] = test system: glucosinolate production; assay: Induction of glucosinolate production in Tropaeolum majus; assay type: in vivo; conditions: 10 mM phenylalanine or 2% ethanol administered to the vermiculate, 24 hours, etiolated seedlings
Experimental: Seeds of Tropaeolum majus L. cv Empress of India (Dansk Havefroforsyning, Kolding, DK) are allowed to imbibe and germinate in complete darkness for one week at 25° C. In vivo biosynthesis experiments are performed wherein 1 μCi of the tracer ^14 C-labelled phenylalanine is administered to excised dark-grown seedlings for 24 hours followed by boiling of the plant material in 90% methanol and analysis of the extracts by HPLC as described by Lykkesfeldt and Moller, 1993. Prior to administration of the tracer to the excised seedling or leaf, the intact plant is subjected to a potential inducer for 24 hours.

[4] = molecular target: T3, E. coli-expressed cytochrome P-450TYR (Sorghum bicolor, UniProt Q43135); assay: Reconstitution with E. coli-expressed cytochrome P-450TYR and sorghum NADPH cytochrome P450 reductase; assay type: biochemical; conditions: dilaurylphosphatidylcholine micelles
T3 construct: in which the 35 N-terminal amino acids are replaced by the nine N-terminal amino acids from bovine 17α hydroxylase; nine N-terminal amino acids from bovine 17alpha-hydroxylase (replace the 35 N-terminal residues) (N); made in house; host or cells: E. coli JM109, vector pSP19g10L
T3 sequence (Q43135 whole entry, looked up): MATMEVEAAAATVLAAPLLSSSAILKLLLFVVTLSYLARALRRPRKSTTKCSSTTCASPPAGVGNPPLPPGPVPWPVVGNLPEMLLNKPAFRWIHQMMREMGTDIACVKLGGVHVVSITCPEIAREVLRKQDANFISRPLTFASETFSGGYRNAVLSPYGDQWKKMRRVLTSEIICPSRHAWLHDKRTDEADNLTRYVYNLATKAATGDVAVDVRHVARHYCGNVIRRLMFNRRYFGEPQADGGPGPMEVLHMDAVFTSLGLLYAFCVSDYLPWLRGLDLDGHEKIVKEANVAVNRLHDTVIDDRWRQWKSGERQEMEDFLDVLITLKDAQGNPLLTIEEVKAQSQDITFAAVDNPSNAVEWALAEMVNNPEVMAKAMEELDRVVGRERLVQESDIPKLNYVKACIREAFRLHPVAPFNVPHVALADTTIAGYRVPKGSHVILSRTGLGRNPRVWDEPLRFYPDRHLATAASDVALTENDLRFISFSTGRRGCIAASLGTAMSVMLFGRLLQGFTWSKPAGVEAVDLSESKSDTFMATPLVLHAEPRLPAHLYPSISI
Experimental: as §1, §2

Molecule: N[C@@H](Cc1ccccc1)C(=O)O [phenylalanine]
- type of substrate binding spectrum [1]: type Ispectrum
- production of the corresponding oxime [2]: do not result in the production of the corresponding oxime
- increase in glucosinolate production as compared to control experiments with water [3]: threefold increase

B1: cytochrome P-450TYR: sorghum cytochrome P-450 monooxygenase converting tyrosine to p-hydroxyphenylacetaldehyde oxime, SEQ ID NO: 2 (protein)
chain: T3 sequence (Q43135 whole entry, looked up)
- Turnover rate [4]: 349 nmol oxime per nmol P-450TYR per minute
